# In publication PMC4587093 (Biochimica et biophysica acta, 2015):
# T1: CYP1D1 (Danio rerio, UniProt A0ACM8Q602)
# T1 sequence (A0ACM8Q602 1-512): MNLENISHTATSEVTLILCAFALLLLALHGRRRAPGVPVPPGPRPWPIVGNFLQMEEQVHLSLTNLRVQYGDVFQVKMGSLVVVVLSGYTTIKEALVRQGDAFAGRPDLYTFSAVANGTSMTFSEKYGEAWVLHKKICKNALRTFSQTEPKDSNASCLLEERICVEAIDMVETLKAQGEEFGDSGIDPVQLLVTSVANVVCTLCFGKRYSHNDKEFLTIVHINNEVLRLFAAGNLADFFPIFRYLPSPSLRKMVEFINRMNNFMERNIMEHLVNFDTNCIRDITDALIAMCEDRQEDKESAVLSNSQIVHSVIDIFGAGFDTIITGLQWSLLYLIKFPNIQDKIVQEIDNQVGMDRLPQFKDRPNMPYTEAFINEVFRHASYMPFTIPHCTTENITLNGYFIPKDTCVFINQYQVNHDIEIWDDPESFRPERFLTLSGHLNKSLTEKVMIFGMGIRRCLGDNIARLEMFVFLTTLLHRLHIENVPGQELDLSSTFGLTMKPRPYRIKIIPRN
# T2: CYP1C2 (Danio rerio, UniProt A0AC58HLV5)
# T2 sequence (A0AC58HLV5 1-514): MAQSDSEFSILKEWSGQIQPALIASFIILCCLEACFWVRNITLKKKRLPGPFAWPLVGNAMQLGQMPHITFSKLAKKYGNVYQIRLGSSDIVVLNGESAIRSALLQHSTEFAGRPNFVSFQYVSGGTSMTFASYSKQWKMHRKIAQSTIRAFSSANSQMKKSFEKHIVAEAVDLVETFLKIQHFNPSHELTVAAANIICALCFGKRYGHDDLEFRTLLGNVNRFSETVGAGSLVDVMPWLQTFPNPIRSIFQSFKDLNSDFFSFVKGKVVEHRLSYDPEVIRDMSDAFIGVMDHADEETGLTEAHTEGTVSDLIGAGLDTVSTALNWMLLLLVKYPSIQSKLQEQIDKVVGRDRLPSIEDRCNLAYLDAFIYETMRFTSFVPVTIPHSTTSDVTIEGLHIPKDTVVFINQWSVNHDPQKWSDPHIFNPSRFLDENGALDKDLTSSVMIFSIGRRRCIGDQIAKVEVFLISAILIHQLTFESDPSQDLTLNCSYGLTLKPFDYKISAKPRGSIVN
# T2 sequence (P16603 2-691 partner): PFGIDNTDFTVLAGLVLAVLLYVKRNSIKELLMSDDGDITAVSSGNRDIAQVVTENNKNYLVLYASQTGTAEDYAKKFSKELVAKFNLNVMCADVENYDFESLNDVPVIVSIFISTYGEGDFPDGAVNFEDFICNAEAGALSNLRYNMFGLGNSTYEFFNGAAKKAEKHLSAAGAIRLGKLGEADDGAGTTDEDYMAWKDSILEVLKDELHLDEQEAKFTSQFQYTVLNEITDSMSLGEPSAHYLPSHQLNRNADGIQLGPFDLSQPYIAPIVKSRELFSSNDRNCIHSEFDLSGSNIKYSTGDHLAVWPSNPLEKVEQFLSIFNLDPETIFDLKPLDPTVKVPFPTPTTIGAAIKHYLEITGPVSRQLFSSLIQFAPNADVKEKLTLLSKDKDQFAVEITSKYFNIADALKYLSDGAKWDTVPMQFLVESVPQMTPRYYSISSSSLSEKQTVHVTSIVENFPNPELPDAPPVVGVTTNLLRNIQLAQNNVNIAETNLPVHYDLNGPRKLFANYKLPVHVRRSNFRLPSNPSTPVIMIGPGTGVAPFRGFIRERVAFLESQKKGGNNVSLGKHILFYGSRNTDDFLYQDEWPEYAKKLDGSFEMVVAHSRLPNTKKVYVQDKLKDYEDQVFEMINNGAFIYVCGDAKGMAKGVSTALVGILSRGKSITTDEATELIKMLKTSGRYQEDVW
# T3: CYP1C1 (Danio rerio, UniProt A0PJ31)
# T3 sequence (A0PJ31 1-523): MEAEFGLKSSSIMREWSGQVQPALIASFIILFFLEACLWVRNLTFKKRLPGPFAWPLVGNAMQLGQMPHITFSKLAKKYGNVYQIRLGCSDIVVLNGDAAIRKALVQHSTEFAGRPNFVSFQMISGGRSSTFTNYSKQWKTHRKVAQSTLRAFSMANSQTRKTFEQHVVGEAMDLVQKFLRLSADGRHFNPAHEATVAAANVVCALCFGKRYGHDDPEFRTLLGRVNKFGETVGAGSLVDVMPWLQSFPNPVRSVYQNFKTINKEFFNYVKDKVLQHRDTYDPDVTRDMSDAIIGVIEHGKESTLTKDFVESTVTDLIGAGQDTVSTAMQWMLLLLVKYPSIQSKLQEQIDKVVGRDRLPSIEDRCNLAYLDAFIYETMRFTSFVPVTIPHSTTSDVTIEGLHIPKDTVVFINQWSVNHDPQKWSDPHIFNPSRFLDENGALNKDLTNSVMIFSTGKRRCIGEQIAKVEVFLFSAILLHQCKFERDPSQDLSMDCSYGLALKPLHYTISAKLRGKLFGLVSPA
# T4: CYP1A (Danio rerio, UniProt A0A8M1PCF4)
# T4 sequence (A0A8M1PCF4 1-519): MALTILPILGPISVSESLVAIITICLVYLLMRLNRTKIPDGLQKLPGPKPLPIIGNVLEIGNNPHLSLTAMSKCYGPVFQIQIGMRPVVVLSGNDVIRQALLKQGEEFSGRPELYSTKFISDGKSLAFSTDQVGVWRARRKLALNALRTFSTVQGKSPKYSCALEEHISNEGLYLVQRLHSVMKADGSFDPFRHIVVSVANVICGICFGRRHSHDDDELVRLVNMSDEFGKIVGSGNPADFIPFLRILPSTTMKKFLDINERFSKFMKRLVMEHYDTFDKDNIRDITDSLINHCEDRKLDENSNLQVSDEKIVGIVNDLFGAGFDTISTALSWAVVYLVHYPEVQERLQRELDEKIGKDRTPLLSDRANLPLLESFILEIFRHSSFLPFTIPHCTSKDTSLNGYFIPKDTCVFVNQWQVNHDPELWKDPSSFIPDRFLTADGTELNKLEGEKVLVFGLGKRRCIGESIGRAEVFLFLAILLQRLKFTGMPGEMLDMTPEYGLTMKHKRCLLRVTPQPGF
# B1: CYP1C1 (Danio rerio) (protein)
# chain: T3 sequence (A0PJ31 1-523)
# B2: CYP1C2 (Danio rerio) (protein)
# chain: T2 sequence (A0AC58HLV5 1-514)
# Experiments:
# [1] = target: T1, CYP1D1; type: biochemical
# [2] = target: T2, CYP1C2; type: biochemical
# [3] = target: T3, CYP1C1; type: biochemical
# [4] = target: T3, CYP1C1; assay: kcat for O-demethylation; type: cell-based
# [5] = target: T3, CYP1C1; type: cell-based
# [6] = target: T4, CYP1A; assay: O-deethylation rate; type: cell-based
# [7] = substrate: CCOc1ccc2nc3ccc(=O)cc-3oc2c1; assay: Km for O-deethylation; type: biochemical, Danio rerio; settings: heme; NADPH
molecule,measurement,setting,value
"c1ccc2c(c1)cc1ccc3cccc4ccc2c1c34 [BaP, benzo[a]pyrene]",Ki,[1],12000 nM
same,Ki,[2],200 nM
same,Ki,[3],60 nM
"COc1ccc2nc3ccc(=O)cc-3oc2c1 [MR, 7-methoxyresorufin]",kcat (mol substrate oxidized/mol P450/min) ^b / MR,[4],4.9 ± 0.6 mol substrate oxidized/mol P450/min
"CCOc1ccc2c(C(F)(F)F)cc(=O)oc2c1 [EFC, 7-ethoxy-4-trifluoromethyl-coumarin]","kcat (mol substrate oxidized/mol P450/min) ^a / EFC ^c, ^d",[5],1.51 ± 0.14 mol substrate oxidized/mol P450/min
"CCOc1ccc2nc3ccc(=O)cc-3oc2c1 [ER, 7-ethoxyresorufin]",CYP expressed via pYES/DEST52 ^a / 1A,[6],89.3 ± 1.9 pmol min^−1 mg^−1 microsomal protein
B1,Km,[7],0.085 ± 0.005 µM
B2,Km,[7],0.11 ± 0.01 µM
